Values of other authors, collected in US20230131493A1, “METHODS OF TREATING AGITATION ASSOCIATED WITH ALZHEIMER'S DISEASE” (Avanir Phrmaceuticals Inc., priority 2021, published 2023).
Counter-ions that a name gives are not always drawn.

Columns and labels:
[1] = a P-glycoprotein substrate
sigma-1 receptor = sigma-1 receptor (Homo sapiens, UniProt Q99720)
sigma-1 receptor, sequence (Q99720 whole entry, species assumed): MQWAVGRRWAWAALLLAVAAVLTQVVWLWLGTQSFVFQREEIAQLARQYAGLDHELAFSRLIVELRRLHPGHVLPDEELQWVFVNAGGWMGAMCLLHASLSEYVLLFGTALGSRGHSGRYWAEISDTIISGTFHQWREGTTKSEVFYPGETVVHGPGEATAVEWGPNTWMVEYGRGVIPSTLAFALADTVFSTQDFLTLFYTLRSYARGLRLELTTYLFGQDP

SMILES	serum digoxin levels on concomitant administration with digoxin [1]	receptor binding (sigma-1 receptor)
C=C[C@H]1CN2CC[C@H]1C[C@@H]2[C@@H](O)c1ccnc2ccc(OC)cc12.C=C[C@H]1CN2CC[C@H]1C[C@@H]2[C@@H](O)c1ccnc2ccc(OC)cc12.O=S(=O)(O)O [Quinidine, quinidine sulfate]	may be as much as doubled	
[2H]C([2H])([2H])Oc1ccc2c(c1)[C@]13CCCC[C@@H]1[C@H](C2)N(C([2H])([2H])[2H])CC3 [d6-DM, deuterated [d6]-dextromethorphan hydrobromide]		binds to the sigma-1 receptor
